Data reported in publication PMC5435455 (ACS Chemical Biology, 2017).
Where two headings read alike, the source gives them in different places.

Tests used:
[1] = target: T1, Pisum sativum agglutinin (PSA, pea lectin) (Lathyrus oleraceus, UniProt P02867); assay: ITC at […] K; assay type: binding
T1 sequence (P02867 31-217): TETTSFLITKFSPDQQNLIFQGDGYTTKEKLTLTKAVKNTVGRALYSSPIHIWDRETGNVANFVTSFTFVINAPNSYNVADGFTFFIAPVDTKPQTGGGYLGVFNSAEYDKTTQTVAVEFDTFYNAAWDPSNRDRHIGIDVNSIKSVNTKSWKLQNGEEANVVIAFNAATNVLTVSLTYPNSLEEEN
T1 sequence (P02867 218-275): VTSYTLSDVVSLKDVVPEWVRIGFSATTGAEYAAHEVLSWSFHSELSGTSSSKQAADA

[2] = target: T1, Pisum sativum agglutinin (PSA, pea lectin); assay: ITC at […] K; assay type: binding; remark: listed apart in the source

Row | Kd [1] [µM] | Kd [2] [µM] | SMILES
1 | 806 ± 32 |  | CO[C@H]1O[C@H](CO)[C@@H](O)[C@H](O)[C@@H]1O [compound 1, methyl α-D-mannopyranoside]
2 |  | 621 ± 11 | OC[C@H]1O[C@H](OC[C@H]2O[C@H](O)[C@@H](O)[C@@H](O[C@H]3O[C@H](CO)[C@@H](O)[C@H](O)[C@@H]3O)[C@@H]2O)[C@@H](O)[C@@H](O)[C@@H]1O [compound 2, 3,6-di-O-(α-D-mannopyranosyl)-α-D-mannopyranose]
